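Test compounds were applied to cells in 96-well plates for 48 hours at 5 doses. At the GI50, growth is halved.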 The source made the active and inactive calls. No stated cut-off is given here; in the data, active = GI50 up to about 1.1 µM and inactive = higher.

The results in this text go back to ChEMBL document CHEMBL1201862, “PubChem BioAssay data set” (2004).

Among the test systems are K562; LOX IMVI; RPMI-8226; HT-29; ACHN; SK-OV-3; NCI-H23; M14; SK-MEL-28; HOP-62; IGROV-1; A549; OVCAR-3; HCT-15; COLO 205; NCI-H226; U-251; SR.
Holding throughout (experiment): NCI tumour cell line growth inhibition, 48 h

As for `CC(C)NCC(O)COC(=O)c1cccs1` (stereo not given), the GI50 in the assay with K562, in the assay on LOX IMVI, with RPMI-8226, in the assay on HT-29, with ACHN and with SK-OV-3 was > 100 µM (inactive) each time. The GI50 with NCI-H23, with M14, in the assay on SK-MEL-28, in the assay on HOP-62, in the assay with IGROV-1 and with A549 was > 100 µM (inactive) in each case. For the same molecule, the GI50 in the assay on OVCAR-3 was > 100 µM (inactive); in the assay with HCT-15, above 100 µM; in the assay on COLO 205, > 100 µM (inactive).
Consider `O=C(CCn1[nH]c(=O)c(Cl)c(Cl)c1=O)NNC(=O)C[n+]1ccccc1`, for which the GI50 in the assay with K562, in the assay with LOX IMVI, with RPMI-8226, in the assay with HT-29, in the assay with ACHN and in the assay on SK-OV-3 was > 100 µM (inactive) each time. For the same molecule, the GI50 in the assay on NCI-H23, with M14, in the assay on SK-MEL-28, in the assay on HOP-62, in the assay on IGROV-1 and in the assay with A549 was > 100 µM (inactive) in each case. For the same molecule, the GI50 is > 100 µM (inactive) with OVCAR-3, above 100 µM in the assay on HCT-15, > 100 µM (inactive) in the assay with NCI-H226 and > 100 µM (inactive) with COLO 205.
Regarding `Cc1ccc(NC(=O)CCC(=O)C(C#N)c2ccc(Cl)cc2)cc1C` (stereo not given), the GI50 in the assay with K562, in the assay on LOX IMVI, in the assay on U-251, with RPMI-8226, in the assay with HT-29 and with ACHN was > 100 µM (inactive) throughout. Besides, the GI50 with NCI-H23, in the assay with M14, in the assay on SK-MEL-28, in the assay on HOP-62, with IGROV-1 and in the assay with A549 was > 100 µM (inactive) each time. Further, the GI50 in the assay on OVCAR-3 is > 100 µM (inactive); in the assay on HCT-15, above 100 µM; with NCI-H226, > 100 µM (inactive).
In the case of `Cn1nc(-c2ccccc2)c(C(=O)/C=C/c2ccc(F)cc2)c(N2CCCCC2)c1=O`, the GI50 in the assay on K562 is 3.39 µM (inactive); in the assay with LOX IMVI, 3.5 µM (inactive); in the assay with U-251 it was 5.74 µM (inactive); in the assay with RPMI-8226 it was 2.48 µM (inactive); in the assay with HT-29 it was 5.32 µM (inactive); with ACHN it was 12.7 µM (inactive). Besides, the GI50 in the assay on SK-OV-3 is 15 µM (inactive); in the assay on NCI-H23, 4.19 µM (inactive); with M14, 5.93 µM (inactive); in the assay on SK-MEL-28 it was 3.79 µM (inactive); in the assay on IGROV-1 it was 11.5 µM (inactive); in the assay with A549, 5.13 µM (inactive). Besides, the GI50 in the assay with HCT-15 is 5.06 µM; in the assay with COLO 205, 4.12 µM (inactive).
For `COc1ccc(Cc2nc3ccccc3s2)cc1OC`, the GI50 with K562 is 20.3 µM (inactive); in the assay on SR, 18.9 µM (inactive); in the assay with U-251, 14.6 µM (inactive); in the assay on RPMI-8226, 23.7 µM (inactive); in the assay with HT-29, 18.7 µM (inactive); with ACHN it was 16.8 µM (inactive). For the same molecule, the GI50 was 28.2 µM (inactive) in the assay on SK-OV-3; 18.1 µM (inactive) in the assay on NCI-H23; 17.5 µM (inactive) in the assay on M14; 18 µM (inactive) with SK-MEL-28; 29.6 µM (inactive) with HOP-62; 18.9 µM (inactive) with IGROV-1. The GI50 in the assay on A549 was 23.5 µM (inactive); in the assay on OVCAR-3, 17.3 µM (inactive); in the assay on HCT-15 it was 24.2 µM; in the assay on NCI-H226, 21 µM (inactive); in the assay with COLO 205 it was 14.6 µM (inactive).
For the molecule `O=C(CC1(O)C(=O)Nc2ccccc21)c1ccc(F)cc1` (stereo not given), the GI50 in the assay on K562, in the assay on LOX IMVI, with RPMI-8226, in the assay with HT-29, in the assay with ACHN and in the assay on SK-OV-3 was > 100 µM (inactive) in each case. Besides, the GI50 with NCI-H23, with M14, in the assay with SK-MEL-28, in the assay with IGROV-1, in the assay with A549 and in the assay on OVCAR-3 was > 100 µM (inactive) in each case. Moreover, the GI50 in the assay with HCT-15 is above 100 µM; in the assay on NCI-H226, > 100 µM (inactive); in the assay on COLO 205, > 100 µM (inactive).
As for `O=c1[nH]c(-c2ccccc2)nc2cc(Cl)ccc12`, the GI50 in the assay with K562, in the assay on U-251, in the assay with RPMI-8226, in the assay with HT-29, in the assay on ACHN and in the assay on SK-OV-3 was > 100 µM (inactive) throughout. For the same molecule, the GI50 in the assay with NCI-H23, in the assay on M14, in the assay on SK-MEL-28, in the assay on HOP-62, in the assay with IGROV-1 and in the assay on A549 was > 100 µM (inactive) in each case. Further, the values for the GI50 in the assay with OVCAR-3, in the assay with HCT-15 and with NCI-H226 were > 100 µM (inactive), above 100 µM and 73.3 µM (inactive), respectively.
In the case of `CN(C)/C(F)=P\C(F)(F)F` (stereo not given), the GI50 in the assay with K562, with LOX IMVI, in the assay on U-251, in the assay on RPMI-8226, with HT-29 and with ACHN was > 100 µM (inactive) throughout. Further, the GI50 in the assay with SK-OV-3, in the assay on NCI-H23, in the assay with M14, with SK-MEL-28, in the assay with HOP-62 and in the assay with IGROV-1 was > 100 µM (inactive) each time. The GI50 is > 100 µM (inactive) in the assay on A549, above 100 µM in the assay with HCT-15, > 100 µM (inactive) with NCI-H226 and > 100 µM (inactive) with COLO 205.
With `COC(=O)c1c(-c2cc(OC)c(OC)c(OC)c2)oc2ccccc2c1=O`, the GI50 with K562 was 42.8 µM (inactive); in the assay with LOX IMVI it was 37.4 µM (inactive); in the assay with U-251, 87.3 µM (inactive); in the assay with RPMI-8226 it was 36.2 µM (inactive); in the assay with HT-29 it was > 100 µM (inactive); with ACHN, > 100 µM (inactive). In addition, the GI50 in the assay on SK-OV-3 is > 100 µM (inactive); in the assay on NCI-H23, > 100 µM (inactive); with M14 it was > 100 µM (inactive); in the assay with HOP-62 it was > 100 µM (inactive); in the assay with IGROV-1, > 100 µM (inactive); in the assay on A549, 83.8 µM (inactive). Further, the GI50 in the assay on OVCAR-3 is 75.9 µM (inactive); with HCT-15, 15.4 µM; in the assay with NCI-H226, > 100 µM (inactive); in the assay with COLO 205 it was 97.7 µM (inactive).
`COc1ccc(O)c(C#N)c1C#N`: the GI50 with K562 is > 100 µM (inactive); with LOX IMVI it was < 0.01 µM (active); in the assay on U-251, > 100 µM (inactive); in the assay on RPMI-8226, > 100 µM (inactive); in the assay on HT-29 it was > 100 µM (inactive); with ACHN, > 100 µM (inactive). The GI50 in the assay on SK-OV-3, in the assay with NCI-H23, in the assay with M14, with HOP-62, in the assay with IGROV-1 and in the assay with A549 was > 100 µM (inactive) in each case. Besides, the GI50 in the assay on OVCAR-3 is > 100 µM (inactive); in the assay with HCT-15, above 100 µM; with NCI-H226, > 100 µM (inactive); in the assay with COLO 205, > 100 µM (inactive).
With `CC(C)(C)c1ccc2c(c1)S(=O)(=O)Nc1ccc(Cl)cc1NS(=O)(=O)c1cc(C(C)(C)C)ccc1OCCOCCOCCO2`, the GI50 in the assay with K562 is > 100 µM (inactive); with LOX IMVI it was > 100 µM (inactive); in the assay with U-251, 29.2 µM (inactive); in the assay on HT-29, 99.3 µM (inactive); in the assay on ACHN, 42.1 µM (inactive); in the assay on SK-OV-3, 33 µM (inactive). Besides, the GI50 with NCI-H23 is 32.4 µM (inactive); in the assay on M14, 81.7 µM (inactive); in the assay with SK-MEL-28, > 100 µM (inactive); in the assay with HOP-62, 32.3 µM (inactive); in the assay on IGROV-1 it was 38 µM (inactive); with A549, 25.1 µM (inactive). The GI50 with OVCAR-3 is 50.6 µM (inactive); with HCT-15, above 100 µM; in the assay on NCI-H226, 57.9 µM (inactive); in the assay with COLO 205, > 100 µM (inactive).
As to `COC(=O)C1CC/C(=N/c2ccc(C)cc2C)N1` (stereo not given), the GI50 with K562, in the assay on LOX IMVI, in the assay on U-251, in the assay on RPMI-8226, in the assay on HT-29 and in the assay with ACHN was > 100 µM (inactive) each time. Further, the GI50 in the assay on SK-OV-3, in the assay with NCI-H23, with M14, in the assay with SK-MEL-28, in the assay on HOP-62 and in the assay with IGROV-1 was > 100 µM (inactive) throughout. The GI50 with A549 was > 100 µM (inactive); in the assay with OVCAR-3, > 100 µM (inactive); with HCT-15, above 100 µM; with NCI-H226, > 100 µM (inactive); with COLO 205, > 100 µM (inactive).
Take `O=c1[nH]cc(C(F)(C(F)(F)F)C(F)(F)F)c(=O)[nH]1`: the GI50 in the assay with K562, with LOX IMVI, with U-251, in the assay with RPMI-8226, in the assay on HT-29 and in the assay on ACHN was > 100 µM (inactive) throughout. Besides, the GI50 in the assay on SK-OV-3, in the assay with NCI-H23, in the assay with M14, in the assay with SK-MEL-28, with HOP-62 and in the assay with IGROV-1 was > 100 µM (inactive) each time. Also, the GI50 in the assay with A549 was > 100 µM (inactive); in the assay with OVCAR-3 it was > 100 µM (inactive); in the assay on HCT-15, above 100 µM; in the assay with NCI-H226 it was > 100 µM (inactive); with COLO 205 it was > 100 µM (inactive).
